Source: ChEMBL document CHEMBL3612022, “Regioselectively controlled synthesis of 3(5)-(trifluoromethyl)pyrazolylbenzenesulfonamides and their effects on a pathological pain model in mice” (Eur J Med Chem, 2015)
The source made the active and inactive calls.

Experiments:
Mus musculus [1] = assay: Locomotor activity in Swiss mouse assessed as motor impairment at 300 mg/kg, po by rotarod test; assay type: toxicity, organism-based; conditions: in vivo
Mus musculus [2] = assay: Locomotor activity in Swiss mouse assessed as motor impairment at 300 mg/kg, po by open-field test; assay type: toxicity, organism-based; conditions: in vivo
Mus musculus [3] = assay: Antihyperalgesic effect in Swiss mouse assessed as inhibition of CFA-induced paw withdrawal threshold at 300 mg/kg, po after 2 hrs; assay type: functional
Mus musculus [4] = assay: Antiedematogenic effect in Swiss mouse assessed as inhibition of CFA-induced paw edema at 300 mg/kg, po after 2 hrs; assay type: functional
Mus musculus [5] = assay: Antihyperalgesic effect in po dosed Swiss mouse assessed as inhibition of CFA-induced paw withdrawal threshold after 2 hrs; assay type: functional
Mus musculus [6] = assay: Antihyperalgesic effect in Swiss mouse assessed as inhibition of CFA-induced paw withdrawal threshold at 300 mg/kg, po after 0.5 to 6 hrs; assay type: functional, organism-based
Mus musculus [7] = assay: Antiedematogenic effect in Swiss mouse assessed as inhibition of CFA-induced paw edema at 300 mg/kg, po after 1 to 6 hrs; assay type: functional, organism-based

COc1ccc(C2=NN(c3ccc(S(N)(=O)=O)cc3)C(O)(C(F)(F)F)C2)cc1 (stereo not drawn)
Activity (Mus musculus [1]): Non-toxic
Activity (Mus musculus [2]): Non-toxic
inhibition (Mus musculus [3]): inactive
inhibition in vivo at 300 mg/kg (Mus musculus [4]): 46%

Cc1ccc(C2=NN(c3ccc(S(N)(=O)=O)cc3)C(O)(C(F)(F)F)C2)cc1 (stereo not drawn)
Activity (Mus musculus [1]): Non-toxic
Activity (Mus musculus [2]): Non-toxic
IC (Mus musculus [5]): 539.3 mg/kg
inhibition (Mus musculus [6]): Active
inhibition (Mus musculus [7]): Active
inhibition in vivo at 300 mg/kg (Mus musculus [3]): 64%
inhibition in vivo at 300 mg/kg (Mus musculus [4]): 45%

NS(=O)(=O)c1ccc(N2N=C(c3ccc(Br)cc3)CC2(O)C(F)(F)F)cc1 (stereo not drawn)
Activity (Mus musculus [1]): Non-toxic
Activity (Mus musculus [2]): Non-toxic
inhibition in vivo at 300 mg/kg (Mus musculus [3]): 57%
inhibition in vivo at 300 mg/kg (Mus musculus [4]): 46%

NS(=O)(=O)c1ccc(N2N=C(c3ccco3)CC2(O)C(F)(F)F)cc1 (stereo not drawn)
Activity (Mus musculus [1]): Non-toxic
Activity (Mus musculus [2]): Non-toxic
inhibition (Mus musculus [3]): inactive
inhibition in vivo at 300 mg/kg (Mus musculus [4]): 48%

NS(=O)(=O)c1ccc(N2N=C(c3ccc(Cl)cc3)CC2(O)C(F)(F)F)cc1 (stereo not drawn)
Activity (Mus musculus [1]): Non-toxic
Activity (Mus musculus [2]): Non-toxic
inhibition in vivo at 300 mg/kg (Mus musculus [3]): 57%

Cc1ccc(-c2cc(C(F)(F)F)nn2-c2ccc(S(N)(=O)=O)cc2)cc1 [CELECOXIB]
IC (Mus musculus [5]): 652.1 mg/kg
inhibition (Mus musculus [6]): Active
inhibition in vivo at 300 mg/kg (Mus musculus [3]): 77%
inhibition in vivo at 300 mg/kg (Mus musculus [4]): 53%

NS(=O)(=O)c1ccc(N2N=C(c3ccc(F)cc3)CC2(O)C(F)(F)F)cc1 (stereo not drawn)
Activity (Mus musculus [1]): Non-toxic
Activity (Mus musculus [2]): Non-toxic
inhibition in vivo at 300 mg/kg (Mus musculus [3]): 62%

NS(=O)(=O)c1ccc(N2N=C(c3ccccc3)CC2(O)C(F)(F)F)cc1 (stereo not drawn)
Activity (Mus musculus [1]): Non-toxic
Activity (Mus musculus [2]): Non-toxic
inhibition in vivo at 300 mg/kg (Mus musculus [3]): 52%
inhibition in vivo at 300 mg/kg (Mus musculus [4]): 44%
